Laboratory results as given in patent US9409906B2, “Pyrimido[4,5-B]indole derivatives and use thereof in the expansion of hematopoietic stem cells” (UNIVERSITÉ DE MONTRÉAL, priority 2012, dated 2016).
“Also recorded” adds a separate entry of the source.

Tests used:
[1] = system: Mobilized peripheral blood CD34(+) cells; assay: Growth factor (Flt3, SCF, TPO) requirement / mitogen test (FIG. 3); format: cell-based, human
Method: FIG. 3: Flt3, SCF, and TPO are required for compound 1 mediated stem cell expansion. Mobilized peripheral blood CD34(+) cells were cultured for 7 days in the presence or absence of the growth factors (Flt3+SCF+TPO).
This indicate that akin to SR1, Compound 1's effect on maintenance of primitive HSC phenotype ex vivo is not due to a mitogenic effect on this population but rather on the prevention of cell differentiation.

[2] = system: CD34+ mPB cells transplanted in NSG mice; assay: Engraftment of cultured CD34+ mPB cells in NSG mice
[3] = system: AhR-responsive genes (CYP1B1 and AhRR); assay: Real-time quantitative RT-PCR for AhR-responsive genes (FIG. 1); format: cell-based, human; details: mPB CD34(+) cells, 12 hours, Compound 1 500 nM
Method: Mobilized peripheral blood CD34(+) cells were cultured for 12 hours with DMSO, SR1 [AhR antagonist 1000 nM], and Compound 1 [500 nM], cells were harvested and real-time quantitative RT-PCR for AhR-responsive genes (CYP1B1 and AhRR) was performed.

[4] = system: CD34+ CB cells transplanted in NSG mice; assay: Engraftment of cultured CD34+ cord blood cells in NSG mice (FIG. 7); details: outcome of 5,000 CD34+ CB cells, 7 days culture, 8-weeks post transplantation (FIG. 7A)
Text: These experiments were done in short term cultures i.e. 7 days.

CD34+ cord blood cells = assay: FACS analysis of differentiation of CD34+ cord blood cells (FIG. 4B-4D); details: FACS / cytological analysis
[5] = system: Mobilized peripheral blood CD34(+) cells; assay: Reversibility (wash-out) of compound effect on CD34+CD45RA− percentage (FIG. 2); format: cell-based, human; details: for reversibility of effect on CD34+CD45RA− percentage after wash-out: 7 days with compound, washed, 8 additional days
Method: FIG. 2: Effect of compound 1 is reversible. Mobilized peripheral blood CD34(+) cells cultured for 7 days with compound 1 (shown in green) or vehicle (DMSO, shown in blue) were washed and re-plated in fresh media with or without Compound addition (solid vs dashed line respectively). Cells were cultured for 8 additional days and the percentage of CD34+CD45RA− was monitored.
This effect is best shown in FIG. 2 where CD34+ mobilized peripheral blood cells are cultured in the presence of Compound 1 for up to 7 days, at which time the Compound 1 is removed by washing the cells.

[6] = system: primary human mobilized CD34+ cells; assay: High throughput screening assay on primary human mobilized CD34+ cells, with secondary screen; format: cell-based
Text: To identify novel putative agonists of HSC self-renewal, we have adapted a high throughput based-screening assay to test a library of small molecule compounds (5,280 low molecular weight compounds) on primary human mobilized CD34+ cells. It is to be understood that the same approach applies to CD34+ cells from the various sources known by a person skilled in the art to isolate CD34+ cells. Mononuclear cells were stained with Mouse antihuman CD34+APC (from BD Pharmingen) and subsequently magnetically labeled with Anti-APC magnetic MicroBeads (from MACS, Miltenyi Biotec). The magnetically labeled cells were retained using AutoMACS column. […]
In a 384-well plate, 2000 CD34^+ cells/well were cultured in 50 μl medium containing 1 μM of test compounds or 0.1% DMSO (vehicle). The proportion of CD34^+CD45RA^− cells was determined at the start of the experiment and after a 7-day incubation. Six out of the 5,280 compounds of different chemical backgrounds initially tested promoted CD34+CD45RA− cell expansion, and seventeen (17) enhanced differentiation as determined by the increase in proportions of CD34−CD45RA+ cells compared to control (DMSO). The six compounds promoting expansion of the CD34+CD45RA− cell population were re-analyzed in a secondary screen. […]

[7] = system: CD34+CD45RA− cord blood cells; assay: Ex vivo expansion of cord blood-derived CD34+ and CD34+CD45RA− cells (FIG. 5B, 5C); format: cell-based, human
[8] = outcome of 2,000,000 and 500,000 cells cultured 10 days, 8 weeks post transplantation

COC(=O)c1ccc2c(c1)[nH]c1ncnc(NCCCN3CCCCC3)c12 [Compound 1, Methyl 4-((3-(piperidin-1-yl)propyl)amino)-9H-pyrimido[4,5-b]indole-7-carboxylate]
induction of cell proliferation in the absence of growth factors (Flt3, TPO, SCF) [1]: not able to induce cell proliferation
CD34+CD45RA− cell count in the absence of any of the growth factors ([1]; 7 days, with or without Flt3+SCF+TPO): lower
human hematopoietic engraftment (human CD45+ cells in BM) ([2]; cells cultured ten days, outcome of 50,000 and 500,000 cells, 13 week post-transplantation): superior to SR1; also recorded: engrafted better than that of DMSO
engraftment of NSG mice (human CD45) [2, 8]: able to engraft NSG mice
reconstitution of human myeloid and lymphoid compartments in bone marrow [2, 8]: positive for human CD33+ and CD19+
suppression of AhR-downstream target genes (CYP1B1 and AhRR) [3]: does not suppress AhR-downstream target genes
human CD45+ engraftment / reconstitution activity [4]: clear effect on reconstitution activity
human CD45+ engraftment / reconstitution activity ([4]; listed as compound 1): human CD45+ engraftment
differentiation of CD34+ cord blood cells (CD34+ cord blood cells): reduces differentiation
reversibility of effect on CD34+CD45RA− percentage after wash-out [5]: rapidly reversible
reversibility of effect on CD34+CD45RA− percentage after wash-out ([5]; listed as compound 1): reversible
compound-free exposure until cells acquired differentiation markers as in control cultures ([5]; after wash-out at day 7): ≤ 2 days
aryl hydrocarbon receptor (AhR) antagonism [6]: not being aryl hydrocarbon receptor (AhR) antagonists
expansion of MNCs including CD34+ cells ([6]; 7-day incubation): promote the expansion of MNCs including CD34+ cells
expansion of cord blood-derived CD34+ and CD34+CD45RA− cells ([7]; 7-day incubation): enhances expansion
in vitro expansion of cord blood-derived CD34+ and CD34+CD45RA− cells ([7]; 12-day incubation): positive effect
expansion of CD34+CD45RA− cord blood cells ([7]; seven day period, DMSO about fifteen fold): 30-40 fold
